Reference: ChEMBL document CHEMBL1124100, “Structure-activity profile of a series of novel triazoloquinazoline adenosine antagonists” (J Med Chem, 1988)

Key:
[1] = organism: Cavia porcellus; test: Inhibition of 2-chloroadenosine-induced relaxation in histamine-contracted guinea pig trachea; type: functional, organism-based
[2] = target: Adenosine A2 receptor (Rattus norvegicus, UniProt P29276+P30543)
Description: Inhibition of binding to Adenosine-2 receptor using [3H]NECA in rat striatum

[3] = target: T1, Adenosine receptor A1 (Rattus norvegicus, UniProt P25099); test: Inhibition of binding towards adenosine A1 receptor using [3H]N-cyclohexyladenosine ([3H]CHA) in rat whole brain membranes.; type: cell membranes
T1 sequence (P25099 whole entry): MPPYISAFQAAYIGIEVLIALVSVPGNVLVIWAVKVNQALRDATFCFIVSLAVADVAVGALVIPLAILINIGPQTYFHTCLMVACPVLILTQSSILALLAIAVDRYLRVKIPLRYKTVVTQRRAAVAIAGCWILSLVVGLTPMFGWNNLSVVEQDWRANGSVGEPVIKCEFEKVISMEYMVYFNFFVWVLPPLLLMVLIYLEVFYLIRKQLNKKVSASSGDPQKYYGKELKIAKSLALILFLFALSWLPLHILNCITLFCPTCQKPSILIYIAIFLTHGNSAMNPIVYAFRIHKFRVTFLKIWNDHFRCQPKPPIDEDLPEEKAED

[4] = target: T2, Adenosine receptor A1 (Rattus norvegicus) (UniProt P25099); test: (§1) Ratio of Ki at A2 to Ki at A1 receptors
T2 sequence (whole entry): T1 sequence (P25099 whole entry)

[5] = organism: Cavia porcellus; test: In vitro inhibition of adenylate cyclase activity of synaptoneurosomes from guinea pig cerebral cortex; type: functional
[6] = as §1

Row | Structure (SMILES) | IC50 [1] [nM] | IC50 [2] [nM] | IC50 [3] [nM] | Ratio [4] | IC50 [5] [nM] | Ratio [6]
1 | CC(C)(C)Nc1nc2ccc(Cl)cc2c2nc(-c3ccco3)nn12 | > 1000 | > 10000 | > 10000 | – | – | –
2 | Oc1nc2ccc(Cl)cc2c2nc(-c3ccco3)nn12 | > 1000 | > 10000 | 10000 | – | – | –
3 | CCC(C)Nc1nc2ccc(Cl)cc2c2nc(-c3ccco3)nn12.CS(=O)(=O)O (stereo unspecified) | > 1000 | 158 | 61 | 2.6 | – | –
4 | CS(=O)(=O)O.Nc1nc2ccc(Cl)cc2c2nc(-c3cccs3)nn12 | > 1000 | 116 | 324 | 0.36 | 200 | –
5 | Nc1nc2ccc(O)cc2c2nc(-c3ccco3)nn12 | 1000 | 5.5 | 9.5 | 0.58 | – | –
6 | Nc1nc2ccc(OCc3ccccc3)cc2c2nc(-c3ccco3)nn12 | > 10000 | 1290 | 145 | 8.9 | – | –
7 | CNc1nc2ccc(Cl)cc2c2nc(-c3ccco3)nn12 | > 1000 | 61 | 89 | 0.69 | – | –
8 | OCCNc1nc2ccc(Cl)cc2c2nc(-c3ccco3)nn12 | > 1000 | 56 | 21 | 2.7 | – | –
9 | CC(C)Nc1nc2ccc(Cl)cc2c2nc(-c3ccco3)nn12 | > 1000 | 179 | 22 | 8.2 | 400 | –
10 | Nc1nc2ccccc2c2nc(-c3ccco3)nn12 | 100 | 27 | 38 | 0.71 | 40 | –
11 | Nc1nc2ccc(Cl)cc2c2nc(C3CCCO3)nn12 (stereo unspecified) | > 1000 | 1580 | 827 | 1.9 | 480 | –
12 | COc1ccc2nc(N)n3nc(-c4ccco4)nc3c2c1 | > 10000 | 19 | 31 | 0.61 | – | –
13 | CS(=O)(=O)O.Nc1nc2ccc(Cl)cc2c2nc(-c3ccc[nH]3)nn12 | > 1000 | 1205 | 610 | 2 | – | –
14 | CS(=O)(=O)O.Nc1nc2ccc(Cl)cc2c2nc(-c3ccco3)nn12 | 3 | 3.3 | – | – | – | –
15 | Nc1nc2ccc(Cl)cc2c2nc(-c3ccc(Br)o3)nn12 | > 1000 | 531 | 1570 | 0.34 | – | –
16 | Cn1c(=O)c2nc[nH]c2n(C)c1=O [THEOPHYLLINE] | 3000 | – | – | – | 10000 | –
17 | CS(=O)(=O)O.Nc1nc2ccc(Cl)cc2c2nc(-c3ccoc3)nn12 | > 1000 | 145 | 295 | – | 79 | 0.49
18 | CN(C)c1nc2ccc(Cl)cc2c2nc(-c3ccco3)nn12 | > 1000 | > 10000 | > 10000 | – | > 1000 | –
19 | CS(=O)(=O)O.Cn1c(=N)n2nc(-c3ccco3)nc2c2ccccc21 | > 1000 | 2914 | 1220 | 2.4 | 1480 | –
